Source: patent publication US4444769A, “Antihypertensive diuretic combination composition and associated method” (Mylan Pharmaceuticals, Inc., priority 1983, dated 1984)

How the values were obtained:
[1] = system: hypertensive individuals who had become hypokalemic
Procedure: In an effort to determine the minimum amount of triamterene needed to reverse the hypokalemia precipitated by hydrochlorothiazide, each subject was continued on hydrochlorothiazide, 50 mg/day administered in a separate tablet, and was also given one of the following daily dosages of triamterene, administered in suspension form throughout the testing period: 0 mg, 25 mg, 50 mg, 75 mg, and 100 mg.

[2] = administration of 100 mg; differently formulated compositions; cited from earlier work

Nc1nc(N)c2nc(-c3ccccc3)c(N)nc2n1 [triamterene, 2,4,7-triamino-6-phenylpteridine]
reversal of hydrochlorothiazide-induced hypokalemia, response ([1]; about 75 mg triamterene with 50 mg hydrochlorothiazide): near maximal response
effectiveness for reversing hydrochlorothiazide-induced hypokalemia ([1]; upper ranges of the doses tested): particularly large in the upper ranges of the doses tested
limit in absorptive capacity of the gastrointestinal tract, mean [2]: ~39%
